We go through three molecules from article PMC11012721 (International Journal of Molecular Sciences, 2024).

The nature of series [1]: HPLC-ESI-QTOF-MS/MS determination of astragaloside IV in organs post mortem. The following applies: for content in kidney (Av) / content in liver (Av) / content in spleen (Av) / content in brain (Av): 1 h after injection, n = 3. In kind it is in vivo, mice. As to the method: They were then homogenized in an Eppendorff plastic vial kept in ice. The homogenates of the organs were vortexed with 200 µL of 50% ethanol for 10 min. The Eppendorff vials were centrifuged at 3500 rpm for 5 min and the supernatant was filtered through a nylon syringe filter with a diameter of 0.22 µm into the autosampler vials with the glass inserts. […] Due to the small size and mass of brains, AIV was quantified in these organs after addition of the reference compound (Sigma Aldrich, St. Louis, MO, USA) to the samples. […] The peak areas of astragaloside IV in the brains were compared with the blank solution of the standard compound. The levels of astragaloside IV in the other organs were measured without the presence of the reference compound.
(§1) The liquid chromatograph consisted of a degasser, a binary pump, a column oven, an autosampler and the high-resolution mass detector QTOF-MS/MS with an electrospray ionization source. The chromatographic column Zorbax Eclipse Plus (Agilent Technologies, CA, USA) (150 mm × 2.1 mm, 3.2 um, RP-18) was used to separate the metabolites of the injected matrix in the following gradient of acetonitrile with 0.1% formic acid (solvent B) in the 0.1% aqueous solution of formic acid (solvent A): 0 min—2% B, 2 min—10% B, 6 min—40% B, 35–37 min—95% B and 37.5 min—2% B. The analysis time was set to 43 min, the follow-up time to 5 min, the flow rate to 0.2 mL/min and the injection volume to 10 μL. The detailed settings of the mass spectrometer were as follows: a capillary voltage of 3000 V, a skimmer voltage of 65 V, a mass range of 100–1200 m/z, a collision energy of 10 and 20 V, a nebulizer pressure of 30 psig, a gas flow rate of 12 L/min and gas and sheath gas temperatures of 250 and 325 °C. The Mass Hunter Workstation (version B.10.00) from Agilent Technologies was used to record and process the data obtained. […] For each of the concentrations, the average values of the content of the tested substance in the respective organ were calculated. The standard deviation (SD) values were calculated in each case. The recorded mass chromatograms for the brain samples (injection with saline: n = 2, injection with LPS: n = 3 and 25 mg/kg b.w. with LPS injection: n = 3) were analyzed with the Mass Profiler Professional Program 15.1 from Agilent Technologies (Santa Clara, CA, USA) with a built-in pathways analysis module that uses the Kyoto Encyclopedia of Genes and Genomes (KEGG) database to detect the effects of the injected substance on molecular mechanisms. First, the raw data from the recorded chromatograms were exported in csv format and analyzed in the program. […] Of the 517 entities analyzed, eleven differentiating m/z signals were detected in the samples, with p < 0.05 and a fold change of 2 settings. One of the differentiating signals was phosphatydylcholine, whose behavior in the tested samples was analyzed with the pathways module.

Details of series [2]: method as in Zhang et al. [60]. The settings on record: ref Zhang et al. [60]; cited from earlier work.
The subject of the next series is AChE. The following applies: previous studies; cited from earlier work.
Series [3] concerns mice. The series can be described thus: passive avoidance test, SCOP-induced long-term memory impairment. In kind it is in vivo. The protocol: (§2) The passive avoidance test in mice is used to assess fear-related learning and memory. The apparatus consists of an acrylic box with two chambers: white (10 × 13 × 15 cm) and black (25 × 20 × 15 cm). During the experiment, the white chamber is illuminated with a bright light (8 W). The black chamber, which is equipped with an electric grid base, is connected to the illuminated chamber.
(§3) A pre-test (training) was carried out before the experiments. Each mouse was placed individually in the illuminated chamber of the device and allowed to explore it within 30 s. The guillotine door separating the two chambers was then opened. The mouse was then allowed to enter the black chamber, where it was immediately treated with an electric shock (0.2 mA) for 2 s. The latency to enter the black chamber was recorded (TL1). During the retention trial, which was performed 24 h after the pre-test, the same mouse was again placed in the lighted chamber of the device. The time required to enter the black chamber was recorded (TL2). In contrast to the pre-test, no foot shock was administered this time. […] The index of latency (IL) was calculated as follows:IL = (TL2 − TL1)/TL1(1)
(§4) After the 30 min delay, the pre-test was performed.

Series [4] concerns mice. In words: locomotor activity test (photoresistance actimeters). The following applies: 6, 12.5 or 25 mg/kg ip; 30 min measurement; p > 0.05.
Series [5] has as its system mice. In words: passive avoidance test, LPS-induced long-term memory impairment. Type of series: in vivo. The settings on record: LPS 2.5 mg/kg ip. The protocol: as §2, §3, §4
Series [6] relates to phosphatidylcholine PC(22:4(7Z, 10Z, 13Z, 16Z)/16:0) level. In words: phosphatidylcholine level in brain samples, pathway analysis (Mass Profiler Professional, KEGG). In kind it is in vivo, mice. The following applies: for effect on phosphatidylcholine level in brains: LPS model. The protocol: as §1
Where [7] appears, read: AIV smaller doses (6, 12.5 mg/kg ip), p > 0.05.
Setting [8] is: AIV 6, 12.5 or 25 mg/kg ip, p > 0.05 vs LPS.

For `CC(C)(O)[C@@H]1CC[C@](C)([C@H]2[C@@H](O)C[C@@]3(C)[C@@H]4C[C@H](O[C@@H]5O[C@H](CO)[C@@H](O)[C@H](O)[C@H]5O)[C@H]5C(C)(C)[C@@H](O[C@@H]6OC[C@@H](O)[C@H](O)[C@H]6O)CC[C@@]56C[C@@]46CC[C@]23C)O1` [AIV, astragaloside IV], in series [1] (6 mg/kg ip), the “content in kidney (Av)” value was 0.0174 mg/Organ, the “content in liver (Av)” value was found to be 0.00411 mg/Organ and the “content in spleen (Av)” value came to 0.03766 mg/Organ. Further, in series [1] (12.5 mg/kg ip), the “content in brain (Av)” value came out at 0.00012 mg/Organ, the “content in kidney (Av)” value was 0.03882 mg/Organ, the “content in liver (Av)” value was 0.01084 mg/Organ and the “content in spleen (Av)” value came to 0.04919 mg/Organ. In addition, in series [1] (25 mg/kg ip), the “content in brain (Av)” value amounted to 0.00023 mg/Organ, the “content in kidney (Av)” value is given as 0.08892 mg/Organ, the “content in liver (Av)” value is on record as 0.02316 mg/Organ and the “content in spleen (Av)” value is listed as 0.06844 mg/Organ. Also, in series [1] (6, 12.5, 25 mg/kg ip), the “dose dependence of concentration in soft organ tissues” value is listed as “dose-dependent”. The “rank order of content in soft organs” value in series [1] (ip, mice, post mortem) is “highest content of the saponin was found in the kidneys, then in the spleen, liver and brain”. For the same molecule, in series [2], the “route of excretion” value is reported as “excreted slowly via hepatic clearance”. The “AChE inhibition” value with AChE is reported as “inhibitor of AChE”. Further, in the series on mice [3] (AIV 25 mg/kg ip before SCOP 1 mg/kg ip, p < 0.001 vs SCOP), the “attenuation of SCOP-impaired acquisition of long-term memory” value is listed as “attenuated”. The “attenuation of SCOP-impaired consolidation of long-term memory” value with mice [3] (AIV 25 mg/kg ip, SCOP 1 mg/kg ip, p < 0.01 vs SCOP) is reported as “attenuated”. Besides, in the series on mice [3] (setting [7]), the “attenuation of SCOP-impaired acquisition of long-term memory” value was “ineffective” and the “attenuation of SCOP-impaired consolidation of long-term memory” value is “ineffective”. For the same molecule, the “effect of AIV itself on acquisition of long-term memory” value with mice [3] (all doses tested (6, 12.5, 25 mg/kg ip), no SCOP, p < 0.001 vs control) is on record as “improved acquisition”. In addition, the “effect on locomotor activity” value in the series on mice [4] is reported as “no effect”. In the series on mice [5] (setting [8]), the “attenuation of LPS-impaired acquisition of long-term memory” value was “did not attenuate” and the “attenuation of LPS-impaired consolidation of long-term memory” value is reported as “did not attenuate”. The “effect on phosphatidylcholine level in brains” value in series [6] (astragaloside IV 25 mg/kg b.w. ip) is “restored the level of the compound to that of saline administration”.

With `CN1[C@@H]2C[C@@H](OC(=O)[C@H](CO)c3ccccc3)C[C@H]1[C@@H]1O[C@@H]12` [SCOP, Scopolamine, reference compound], the “effect on memory acquisition and consolidation vs control mice” value in the series with mice [3] (SCOP 1 mg/kg ip, p < 0.001) is “impaired both memory acquisition and consolidation”.

Regarding lipopolysaccharide [LPS], the “effect on memory acquisition and consolidation vs control mice” value in the series with mice [5] (p < 0.001) is “impaired both memory acquisition and consolidation”. The “effect on phosphatidylcholine level in brains” value in series [6] is recorded as “decrease the level of phosphatidylcholines”. Moreover, in series [6] (brain samples, LPS group), the “Kennedy Pathway log2 (phosphatidylcholine level)” value is listed as 0 and the “One-Carbon Metabolism log2 (phosphatidylcholine level)” value came out at 0.
